In US20250313548A1 (Actio Biosciences, Inc., priority 2023, published 2025):

Target: human, KCNT1 (Homo sapiens (Human), UniProt Q5JUK3)
Assay: FLIPR Tl/K Flux Assay
Assay type: cell-based
Details: HEK293 cells stably expressing human KCNT1; Tl+ flux stimulated with EC80 of agonist Loxapine
Description: HEK293 cells stably expressing human, KCNT1 were cultured in DMEM, 10% FBS, 100 U/mL penicillin-streptomycin and […] puromycin for selection purposes. One day before the assay, cells were detached using TrypLE™ Express and counted using a cell counter. Only cells with >85% viability were used for the assay. […] The cells were incubated overnight at 37° C., 5% (v/v) CO2.
On the day of the assay, the reagents were prepared following the FLIPR® Potassium Assay Kit manual: prepare 2× dye solution, dilute the dye with assay buffer (20 mM HEPES in 1× HBSS, PH7.4), addition of probenecid to a final concentration of 5 mM, and vortexed vigorously for 1-2 minutes. The cell plate was flicked to remove medium and tapped on paper towels to remove excess media. […] The cell plate was moved to a plate shaker, agitated at 600 rpm for two minutes, and then incubated at 25° C. for one hour.
The compounds were prepared in DMSO and transferred to a 384-well compound plate (PP, low binding), referred to as a source plate. Reference agonist (300 nM) compound and test inhibitor (10 mM) compounds were added to the compound plate and a 4-fold serial dilution was performed in DMSO. Using an ECHO dispenser, compounds were dispensed at 90 nL/well from the source plate to a 384-well compound plate (PP, low binding). After the dispensing was complete, 30 µL/well assay buffer was added to the compound plate and mixed for two minutes on a plate shaker. The cell plate, compound plate, and tips were loaded into the FLIPR instrument, and a transfer of 10 μl of 3× compound to the cell plate was initiated. The treated cell plate was kept at in the dark at 25° C. for 30 minutes. Chloride-free stimulation buffer containing 4× 2 mM Tl+ and 4×EC80 of agonist Loxapine was loaded into a 384-well compound plate (PP, low binding). After the 30-minute incubation, the cell plate, compound plate containing stimulation buffer, and FLIPR tips were loaded into the FLIPR instrument. After a baseline read, the FLIPR initiates a transfer of 10 μL of stimulation buffer containing Loxapine to the cell plate. The plate was read for 160 sec with 1 second interval reads to obtain the data.
The normalized fluorescence reading (RFU) was calculated as shown follow, while Fmax and Fmin stand for maximum and minimum of signal during defined time window. The IC50 was calculated by fitting % inhibition against log of compound concentrations with Hill equation using XLfit.

Sequence of human, KCNT1 (Q5JUK3 whole entry): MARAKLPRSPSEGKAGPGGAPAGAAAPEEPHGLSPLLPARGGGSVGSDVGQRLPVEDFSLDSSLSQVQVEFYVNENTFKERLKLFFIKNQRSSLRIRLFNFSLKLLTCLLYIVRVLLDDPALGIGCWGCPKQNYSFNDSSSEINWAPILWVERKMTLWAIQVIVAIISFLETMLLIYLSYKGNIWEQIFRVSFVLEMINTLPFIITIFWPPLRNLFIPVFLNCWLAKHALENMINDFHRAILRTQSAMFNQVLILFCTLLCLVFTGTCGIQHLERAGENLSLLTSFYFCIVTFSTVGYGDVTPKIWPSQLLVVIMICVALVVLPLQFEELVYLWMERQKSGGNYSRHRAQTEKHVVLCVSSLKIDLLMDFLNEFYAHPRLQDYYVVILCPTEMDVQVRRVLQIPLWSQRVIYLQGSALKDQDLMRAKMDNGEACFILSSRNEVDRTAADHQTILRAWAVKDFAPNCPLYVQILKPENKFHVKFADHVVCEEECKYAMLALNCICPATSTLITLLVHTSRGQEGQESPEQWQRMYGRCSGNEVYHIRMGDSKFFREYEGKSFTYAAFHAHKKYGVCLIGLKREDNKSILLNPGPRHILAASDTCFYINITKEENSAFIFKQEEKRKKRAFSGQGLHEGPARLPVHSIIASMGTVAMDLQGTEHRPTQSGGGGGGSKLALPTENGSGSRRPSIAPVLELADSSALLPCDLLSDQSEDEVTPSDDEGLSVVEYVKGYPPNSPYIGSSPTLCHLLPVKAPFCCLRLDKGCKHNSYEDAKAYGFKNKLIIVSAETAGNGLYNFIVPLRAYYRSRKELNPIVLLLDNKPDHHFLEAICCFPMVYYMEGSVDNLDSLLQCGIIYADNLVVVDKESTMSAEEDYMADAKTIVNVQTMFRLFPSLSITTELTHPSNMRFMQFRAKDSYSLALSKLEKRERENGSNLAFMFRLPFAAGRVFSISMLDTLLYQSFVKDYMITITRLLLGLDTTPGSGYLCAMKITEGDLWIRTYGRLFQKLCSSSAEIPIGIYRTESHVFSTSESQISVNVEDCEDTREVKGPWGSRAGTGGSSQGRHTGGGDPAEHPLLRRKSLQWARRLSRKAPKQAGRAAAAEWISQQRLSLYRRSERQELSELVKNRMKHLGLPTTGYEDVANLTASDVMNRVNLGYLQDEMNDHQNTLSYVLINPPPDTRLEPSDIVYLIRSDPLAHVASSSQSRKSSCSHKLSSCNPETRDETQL

IC50	Structure (SMILES)
> 1000 nM	Cc1ccccc1C(=O)NC1CCCc2nn(-c3ccnc(C(F)(F)F)c3)cc21 (racemic) [Compound I-29, (rac)-2-Methyl-N-(2-(2-(trifluoromethyl)pyridin-4-yl)-4,5,6,7-tetrahydro-2H-indazol-4-yl)benzamide]
> 1000 nM	O=C(NC1CCCc2nn(-c3ccnc(C(F)(F)F)c3)cc21)c1ccccn1 (racemic) [Compound I-31, (rac)-N-(2-(2-(Trifluoromethyl)pyridin-4-yl)-4,5,6,7-tetrahydro-2H-indazol-4-yl)picolinamide]
> 1000 nM	O=C(NC1CCCc2nn(-c3ccnc(C(F)(F)F)c3)cc21)c1cccnc1 (racemic) [Compound I-32, (rac)-N-(2-(2-(Trifluoromethyl)pyridin-4-yl)-4,5,6,7-tetrahydro-2H-indazol-4-yl)nicotinamide]
> 1000 nM	Cn1nc(C(F)(F)F)cc1C(=O)NC1CCCc2nn(-c3ccn4ccnc4c3)cc21 (racemic) [Compound I-34, (rac)-N-(2-(Imidazo[1,2-a]pyridin-7-yl)-4,5,6,7-tetrahydro-2H-indazol-4-yl)-1-methyl-3-(trifluoromethyl)-1H-pyrazole-5-carboxamide]
> 1000 nM	O=C(NC1CCCc2nn(-c3ccnc(C(F)(F)F)c3)cc21)c1ccncc1 (racemic) [Compound I-36, (rac)-N-(2-(2-(Trifluoromethyl)pyridin-4-yl)-4,5,6,7-tetrahydro-2H-indazol-4-yl)isonicotinamide]
> 1000 nM	Cn1nc(C(F)(F)F)cc1C(=O)NC1CCCc2nn(-c3ccn4nccc4c3)cc21 (racemic) [Compound I-38, (rac)-1-Methyl-N-(2-(pyrazolo[1,5-a]pyridin-5-yl)-4,5,6,7-tetrahydro-2H-indazol-4-yl)-3-(trifluoromethyl)-1H-pyrazole-5-carboxamide]
< 250 nM	Cn1nc(C(F)(F)F)cc1C(=O)NC1CCCCc2nn(-c3ccnc(C(F)(F)F)c3)cc21 (racemic) [Compound I-45, (rac)-1-Methyl-3-(trifluoromethyl)-N-(2-(2-(trifluoromethyl)pyridin-4-yl)-2,4,5,6,7,8-hexahydrocyclohepta[c]pyrazol-4-yl)-1H-pyrazole-5-carboxamide]
< 250 nM	CCOc1cc(-n2cc3c(n2)CCCC3NC(=O)c2cc(C(F)(F)F)nn2CC)ccn1 (racemic) [Compound I-55, (rac)-N-(2-(2-Ethoxypyridin-4-yl)-4,5,6,7-tetrahydro-2H-indazol-4-yl)-1-ethyl-3-(trifluoromethyl)-1H-pyrazole-5-carboxamide]
< 250 nM	CCOc1cc(-n2cc3c(n2)CCCCC3NC(=O)c2cccc(C(F)(F)F)c2)ccn1 (racemic) [Compound I-61, (rac)-N-(2-(2-Ethoxypyridin-4-yl)-2,4,5,6,7,8-hexahydrocyclohepta[c]pyrazol-4-yl)-3-(trifluoromethyl)benzamide]
< 250 nM	O=C(N[C@H]1CCCCc2nn(-c3ccnc(C(F)(F)F)c3)cc21)c1cc(Cl)cc(C(F)(F)F)c1 (single isomer, unassigned) [Compound I-109a]
< 250 nM	Cc1cc(F)cc(C(=O)N[C@H]2CCc3nn(-c4ccnc(C(F)(F)F)c4)cc32)c1 (single isomer, unassigned) [Compound I-384a]

Second part, the compound before the results:

Structure (SMILES)	IC50
CCOc1cc(-n2cc3c(n2)CCCC3NC(=O)c2ccc3ccccc3c2)ccn1 (racemic) [Compound I-30, (rac)-N-(2-(2-Ethoxypyridin-4-yl)-4,5,6,7-tetrahydro-2H-indazol-4-yl)-2-naphthamide]	500 to 1000 nM
Cn1nc(C(F)(F)F)cc1C(=O)NC1CCCc2nn(-c3ccc(=O)[nH]c3)cc21 (racemic) [Compound I-33, (rac)-1-Methyl-N-(2-(6-oxo-1,6-dihydropyridin-3-yl)-4,5,6,7-tetrahydro-2H-indazol-4-yl)-3-(trifluoromethyl)-1H-pyrazole-5-carboxamide]	> 1000 nM
Cn1nc(C(F)(F)F)cc1C(=O)NC1CCCc2nn(-c3cc[nH]c(=O)c3)cc21 (racemic) [Compound I-35, (rac)-1-Methyl-N-(2-(2-oxo-1,2-dihydropyridin-4-yl)-4,5,6,7-tetrahydro-2H-indazol-4-yl)-3-(trifluoromethyl)-1H-pyrazole-5-carboxamide]	> 1000 nM
Cn1nc(C(F)(F)F)cc1C(=O)NC1CCCc2nn(-c3ccc(=O)n(C)c3)cc21 (racemic) [Compound I-39, (rac)-1-Methyl-N-(2-(1-methyl-6-oxo-1,6-dihydropyridin-3-yl)-4,5,6,7-tetrahydro-2H-indazol-4-yl)-3-(trifluoromethyl)-1H-pyrazole-5-carboxamide]	> 1000 nM
Cn1nc(C(F)(F)F)cc1C(=O)NC1CCCc2nn(-c3ccn(C)c(=O)c3)cc21 (racemic) [Compound I-40, (rac)-1-Methyl-N-(2-(1-methyl-2-oxo-1,2-dihydropyridin-4-yl)-4,5,6,7-tetrahydro-2H-indazol-4-yl)-3-(trifluoromethyl)-1H-pyrazole-5-carboxamide]	> 1000 nM
Cn1nc(C(F)(F)F)cc1C(=O)NC1CCCn2nc(-c3ccnc(C(F)(F)F)c3)cc21 (racemic) [Compound I-42, (rac)-1-Methyl-3-(trifluoromethyl)-N-(2-(2-(trifluoromethyl)pyridin-4-yl)-4,5,6,7-tetrahydropyrazolo[1,5-a]pyridin-4-yl)-1H-pyrazole-5-carboxamide]	< 250 nM
CCOc1cc(-n2cc3c(n2)CCCCC3NC(=O)c2cccc(C)c2)ccn1 (racemic) [Compound I-59, (rac)-N-(2-(2-Ethoxypyridin-4-yl)-2,4,5,6,7,8-hexahydrocyclohepta[c]pyrazol-4-yl)-3-methylbenzamide]	< 250 nM
Cn1nc(C(F)(F)F)cc1C(=O)NC1CCc2nn(-c3ccnc(C(F)(F)F)c3)cc2C1 (racemic) [Compound I-63, (rac)-1-Methyl-3-(trifluoromethyl)-N-(2-(2-(trifluoromethyl)pyridin-4-yl)-4,5,6,7-tetrahydro-2H-indazol-5-yl)-1H-pyrazole-5-carboxamide]	< 250 nM
Cn1nc(C(F)(F)F)cc1C(=O)NC1CCCCn2nc(-c3ccnc(C4CC4)c3)cc21 (single isomer, unassigned) [Compound I-67]	< 250 nM
Cn1cc(C(=O)N[C@H]2CCCn3nc(-c4ccnc(C(F)(F)F)c4)cc32)c(C(F)(F)F)c1 (single isomer, unassigned) [Compound I-409a]	< 250 nM
COc1cc(-c2cc3n(n2)CCC3NC(=O)c2nc(C(F)(F)F)nn2C)ccn1 (single isomer, unassigned) [Compound I-473]	> 1000 nM
CC(F)(F)c1cc(-c2nc3c(o2)CCCC3NC(=O)c2cc(C(F)(F)F)n(C(F)F)n2)ccn1 (single isomer, unassigned) [Compound I-534]	< 250 nM
CC(F)(F)c1cc(-c2nc3c(o2)CCCC3NC(=O)c2cn(C(F)(F)F)nc2C(F)F)ccn1 (single isomer, unassigned) [Compound I-535]	< 250 nM
Cn1nc(C(F)(F)F)cc1C(=O)N[C@H]1CCCc2nc(-c3ccnc(C(F)(F)F)c3)ccc21 (single isomer, unassigned) [I-149*]	< 250 nM
O=C(N[C@H]1CCCc2cnc(-c3ccnc(C(F)(F)F)c3)cc21)c1cc2cccnn2c1 (single isomer, unassigned) [I-268*]	> 1000 nM
COc1cc(C(=O)N[C@H]2CCCc3cnc(-c4ccnc(C(F)(F)F)c4)cc32)ccn1 (single isomer, unassigned) [I-269*]	> 1000 nM
O=C(N[C@H]1CCCc2cnc(-c3ccnc(C(F)(F)F)c3)cc21)c1cncc(C(F)(F)F)n1 (single isomer, unassigned) [I-270*]	> 1000 nM
Cc1nc(C(F)(F)F)oc1C(=O)N[C@H]1CCCc2cnc(-c3ccnc(C(F)(F)F)c3)cc21 (single isomer, unassigned) [I-271*]	500 to 1000 nM
Cn1nc(C(F)(F)F)cc1C(=O)N[C@H]1CCCCn2nc(-c3ccnc(C(F)(F)F)c3)nc21 (single isomer, unassigned) [I-272*]	< 250 nM
N#Cc1cccc(C(=O)NC2CCCn3cc(-c4ccnc(C(F)(F)F)c4)cc32)c1 (single isomer, unassigned) [I-309*]	< 250 nM
N#Cc1cccc(C(=O)N[C@H]2CCn3cc(-c4ccnc(C(F)(F)F)c4)cc32)c1 (stereo in doubt) [Compound I-276a, 3-Cyano-N-(6-(2-(trifluoromethyl)pyridin-4-yl)-2,3-dihydro-1H-pyrrolizin-1-yl)benzamide]	< 250 nM
Cn1nc(C(F)(F)F)cc1C(=O)N[C@H]1CCc2nn(-c3ccnc(C(F)(F)F)c3)cc21 [Compound I-1a, (S)-1-Methyl-3-(trifluoromethyl)-N-(2-(2-(trifluoromethyl)pyridin-4-yl)-2,4,5,6-tetrahydrocyclopenta[c]pyrazol-4-yl)-1H-pyrazole-5-carboxamide]	< 250 nM
